These results are taken from ChEMBL document CHEMBL3045720, “Synthesis and antifungal activity of 2-chloromethyl-1H-benzimidazole derivatives against phytopathogenic fungi in vitro” (J Agric Food Chem, 2013).

One test has as its system Botrytis cinerea. Nature of the test: Antifungal activity against Botryotinia fuckeliana assessed as inhibition of mycelium growth at 100 ug/ml […]. In kind it is functional. As to conditions: 168 h, read-out: GI.
The subject of the next test is Cytospora. Nature of the test: Antifungal activity against Cytospora sp. assessed as inhibition of mycelium growth at 100 ug/ml after 3 to 4 days. As to conditions: 72 to 96 h, read-out: GI.
The next test concerns Alternaria solani. Nature of the test: Antifungal activity against Alternaria solani assessed as inhibition of mycelium growth at 100 ug/ml […]. In kind it is functional. As to conditions: 168 h, read-out: GI.
For the next test, the system named is Fusarium solani. Description: Antifungal activity against Fusarium solani assessed as inhibition of mycelium growth at 100 ug/ml […]. In kind it is functional. As to conditions: 168 h, read-out: GI.
Test [1] relates to Colletotrichum gloeosporioides. Description: Antifungal activity against Colletotrichum gloeosporioides assessed as inhibition of mycelium growth at 100 ug/ml after 3 to 4 days. As to conditions: 72 to 96 h, read-out: GI.

Regarding `CCCOC(=O)c1ccc(OCc2nc3cc([N+](=O)[O-])ccc3n2C)cc1`, the inhibition of growth at 100 µg/mL with Botrytis cinerea was less than 5%; in the test with Cytospora it was 10.9%; with Alternaria solani, 8.05%; in the test on Fusarium solani, 19.4%; in test [1], less than 5%.

For the compound `CC(=O)c1ccccc1OCc1nc2cc([N+](=O)[O-])ccc2n1C`, the inhibition of growth at 100 µg/mL in the test with Botrytis cinerea was less than 5%; in the test with Cytospora it was less than 5%; in the test with Alternaria solani it was 13.8%; with Fusarium solani it was less than 5%; in test [1], less than 5%.

Consider `CC(=O)c1ccc(OCc2nc3cc([N+](=O)[O-])ccc3n2C)cc1`, for which the inhibition of growth at 100 µg/mL is 38.6% with Botrytis cinerea; less than 5% in the test on Cytospora; 33.5% in the test on Alternaria solani; less than 5% with Fusarium solani; less than 5% in test [1].

On to `Cn1c(COc2ccc(C(C)(C)C)cc2)nc2ccccc21`, for which the inhibition of growth at 100 µg/mL in the test with Botrytis cinerea was 64.8%; in the test with Cytospora, 28.2%; in the test with Alternaria solani, 23.6%; in the test with Fusarium solani it was less than 5%; in test [1], 63.8%.

On to `Cn1c(COc2ccc(C(C)(C)C)cc2)nc2cc([N+](=O)[O-])ccc21`, for which the inhibition of growth at 100 µg/mL with Botrytis cinerea is 57.3%; in the test on Cytospora it was less than 5%; in the test with Alternaria solani, 30.2%; in the test with Fusarium solani, less than 5%; in test [1] it was 30.2%.

Turning to `COc1cc(C=O)ccc1OCc1nc2ccccc2n1C`, the inhibition of growth at 100 µg/mL is 15.2% in the test with Botrytis cinerea; 10.2% in the test with Cytospora; 40.9% in the test on Alternaria solani; 24.7% with Fusarium solani; less than 5% in test [1].

Consider `Cn1c(COc2ccc(C=O)cc2)nc2ccccc21`, for which the inhibition of growth at 100 µg/mL in the test on Botrytis cinerea was less than 5%; in the test on Cytospora, 21%; with Alternaria solani, 27.8%; in the test on Fusarium solani, 12%; in test [1], 49.2%.

For `C=CCc1ccc(OCc2nc3cc([N+](=O)[O-])ccc3n2C)c(OC)c1`, the inhibition of growth at 100 µg/mL is 24% with Botrytis cinerea; less than 5% in the test with Cytospora; 35.1% with Alternaria solani; 25.4% in the test with Fusarium solani; less than 5% in test [1].

Consider `C=CCc1ccc(OCc2nc3ccccc3n2C)c(OC)c1`, for which the inhibition of growth at 100 µg/mL stood at 47.4% in the test with Botrytis cinerea; 49.7% in the test on Cytospora; 40.1% with Alternaria solani; 60.4% in the test on Fusarium solani; 38.1% in test [1].

For the compound `COC(=O)c1ccc(OCc2nc3ccccc3n2C)cc1`, the inhibition of growth at 100 µg/mL with Botrytis cinerea is 6.43%; in the test with Cytospora it was 31%; with Alternaria solani, 64.6%; in the test with Fusarium solani, 48.2%; in test [1], less than 5%.

As to `COC(=O)c1ccc(OCc2nc3cc([N+](=O)[O-])ccc3n2C)cc1`, the inhibition of growth at 100 µg/mL with Botrytis cinerea is 32.2%; in the test with Cytospora, less than 5%; in the test with Alternaria solani, less than 5%; with Fusarium solani, 18%; in test [1], 59.1%.

Regarding `CCOC(=O)c1ccc(OCc2nc3cc([N+](=O)[O-])ccc3n2C)cc1`, the inhibition of growth at 100 µg/mL was less than 5% with Botrytis cinerea; less than 5% in the test on Cytospora; 11.3% with Alternaria solani; less than 5% in the test with Fusarium solani; less than 5% in test [1].

Regarding `Cn1c(COc2ccccc2)nc2cc([N+](=O)[O-])ccc21`, the inhibition of growth at 100 µg/mL in the test with Botrytis cinerea was 7.89%; with Cytospora, less than 5%; in the test with Alternaria solani, 10.5%; in the test on Fusarium solani, 5.91%; in test [1] it was less than 5%.

As for `Cn1c(COc2ccc([N+](=O)[O-])cc2)nc2ccccc21`, the inhibition of growth at 100 µg/mL in the test on Botrytis cinerea was less than 5%; in the test on Cytospora, 19.5%; in the test with Alternaria solani, 11.3%; in the test with Fusarium solani, 8.6%; in test [1], 41.3%.

Regarding `Cn1c(COc2cccc3ccccc23)nc2cc([N+](=O)[O-])ccc21`, the inhibition of growth at 100 µg/mL is less than 5% in the test with Botrytis cinerea; less than 5% in the test with Cytospora; 19.5% with Alternaria solani; less than 5% with Fusarium solani; less than 5% in test [1].

In the case of `CC(=O)c1cccc(OCc2nc3cc([N+](=O)[O-])ccc3n2C)c1`, the inhibition of growth at 100 µg/mL is less than 5% in the test with Botrytis cinerea; 51.9% in the test with Cytospora; less than 5% in the test on Alternaria solani; less than 5% with Fusarium solani; less than 5% in test [1].

On to `CNc1ccccc1N(C)C(=O)CCl`, for which the inhibition of growth at 100 µg/mL was 64.4% with Botrytis cinerea; less than 5% with Cytospora; 25.3% in the test on Alternaria solani; 30.1% in the test with Fusarium solani; 41.3% in test [1].

Regarding `Cn1c(COc2ccc(F)cc2)nc2cc([N+](=O)[O-])ccc21`, the inhibition of growth at 100 µg/mL is less than 5% with Botrytis cinerea; 22.4% in the test on Cytospora; less than 5% in the test with Alternaria solani; 9.95% with Fusarium solani; less than 5% in test [1].

Consider `COc1cc(C(C)=O)ccc1OCc1nc2ccccc2n1C`, for which the inhibition of growth at 100 µg/mL is 59.1% in the test on Botrytis cinerea; 26% in the test on Cytospora; 17.9% in the test on Alternaria solani; less than 5% in the test with Fusarium solani; 14.3% in test [1].

`CCCOC(=O)c1ccc(OCc2nc3ccccc3n2C)cc1`: the inhibition of growth at 100 µg/mL is less than 5% in the test on Botrytis cinerea; 48.3% with Cytospora; 63.6% with Alternaria solani; 42.2% with Fusarium solani; 20.6% in test [1].

Regarding `Cn1c(COc2ccc(C=O)cc2)nc2cc([N+](=O)[O-])ccc21`, the inhibition of growth at 100 µg/mL in the test on Botrytis cinerea is less than 5%; in the test with Cytospora, 9.48%; in the test on Alternaria solani, 16.3%; in the test with Fusarium solani, less than 5%; in test [1], less than 5%.

In the case of `Cn1c(COc2cccc3ccccc23)nc2ccccc21`, the inhibition of growth at 100 µg/mL is less than 5% in the test with Botrytis cinerea; 62.6% in the test on Cytospora; 50.7% with Alternaria solani; 53% with Fusarium solani; 22.2% in test [1].
